According to ChEMBL document CHEMBL6134807, “A review-plant medicine and its extraction components inhibit influenza virus” (Bioorg Med Chem Lett, 2025):

System: Influenza B virus
Assay: Antiviral activity against Influenza virus […] B/Panama/45/1990 infected in MDCK cells at 0.001 MOI assessed as inhibition of virus cytopathic effect measured after 48 hrs by crystal violet staining based assay
Type: functional, organism-based
Details: B/Panama/45/1990, MDCK

Compound	EC50
O=C(O[C@@H]1Cc2c(O)cc(O)cc2O[C@@H]1c1ccc(O)c(O)c1)c1cc(O)c(O)c(O)c1 [EPICATECHIN GALLATE]	22 µM
COc1cc(/C=C/C(=O)CC(=O)/C=C/c2ccc(O)c(OC)c2)ccc1O [CURCUMIN]	0.47 µM
O=C(O[C@@H]1Cc2c(O)cc(O)cc2O[C@@H]1c1cc(O)c(O)c(O)c1)c1cc(O)c(O)c(O)c1 [EPIGALOCATECHIN GALLATE]	5.7 µM
